Test: percentage initial hypochlorite remaining as a function of time after mixing oxidant with reductant
Format: physicochemical
Details: any pH below 12
Text: The amount of available halogen oxidant in the composition may be determined by placing samples of the composition into about 50 milliliters of distilled water, followed by addition of about 10 milliliters of a 10 wt % solution of potassium iodide and addition of about 10 milliliters of a 10 volume % solution of sulfuric acid, the resulting mixture being well stirred. The resulting yellow to brown solution, whose color is the result of oxidation of free iodine ion (I′) to molecular iodine (I2), is then volumetrically titrated to an essentially colorless endpoint by addition of standardized 0.1 Molar sodium thiosulfate (Na2S2O3) titrant. […] Stability results are then expressed by repeated assays over time using identically prepared samples resulting from the same composition, normalized to 100 percent representative of the starting available chlorine measured initially.
Alternatively, at lower concentrations of hypochlorite, generally below about 2,000 ppm or 0.2 wt %, spectroscopic measurement of the absorption of aqueous solutions may be used to monitor the concentration, and resulting changes, of the hypochlorous acid species in solution. […] By use of controls, the relative level of hypochlorite can then be monitored and calculated by measuring absorbance of solutions by means of a suitable instrument, such as a spectrophotometer. […]

reaction of reductant with hypochlorite (quenching rate): reacts almost instantly
SMILES: O=C(O)CN(CCN(CC(=O)O)CC(=O)O)CC(=O)O [EDTA, ethylene diamine tetra-acetic acid]

Reference: patent publication US9074163B2, “Targeted performance of hypohalite systems thereof” (The Clorox Company, priority 2012, dated 2015)
